This is an account of results in ChEMBL document CHEMBL2331202, “Synthesis, Optimization, and Evaluation of Novel Small Molecules as Antagonists of WDR5-MLL Interaction” (ACS Med Chem Lett, 2013).

Usually Kd stands for the constant that tells how readily two partners part at equilibrium. A high value points to a looser complex. As usually defined, the IC50 is the point on the concentration scale where inhibition reaches its midpoint.

The target of one experiment is T1, WD repeat-containing protein 5 (Homo sapiens, UniProt P61964).
`CN1CCN(c2ccc([N+](=O)[O-])cc2NC(=O)c2cccnc2)CC1` came in with a Kd above 10 µM.

For the compound `CN1CCN(c2ccc([N+](=O)[O-])cc2NC(=O)c2cccc3ncccc23)CC1`, the affinity, expressed as Kd, was 1.5 µM.

`COC(=O)c1ccc(N2CCN(C)CC2)c(NC(=O)c2ccccc2Cl)c1` showed an equilibrium dissociation constant (Kd) of 6.6 µM. This Kd is about 4.4-fold higher than that of the compound before.

The compound `CN1CCN(c2ccc([N+](=O)[O-])cc2NC(=O)c2cccc(Cl)c2)CC1` displayed a Kd of 1.8 µM. This Kd is about 3.7-fold lower than that of the compound before.

Regarding `CN1CCN(c2ccc(-c3ccncc3)cc2NC(=O)c2ccccc2Cl)CC1`, binding was put at a Kd of 2.2 µM.

The compound `CN1CCN(c2ccc([N+](=O)[O-])cc2NC(=O)Cc2ccccc2)CC1` had a Kd above 10 µM.

`Cc1cccc(C(=O)Nc2cc([N+](=O)[O-])ccc2N2CCN(C)CC2)c1` registered a dissociation constant (Kd) of 1.1 µM.

For `CN1CCN(c2ccc([N+](=O)[O-])cc2NC(=O)c2ccc(F)cc2)CC1`, the Kd was found to be 3.1 µM.

The compound `COc1cc(C(=O)Nc2cc([N+](=O)[O-])ccc2N2CCN(C)CC2)ccc1F` returned a Kd of 0.68 µM.

`CN(C)C1CCN(c2ccc([N+](=O)[O-])cc2NC(=O)c2ccccc2Cl)C1` (stereo not drawn) came in with a Kd of 15.8 µM.

`COc1cccc(C(=O)Nc2cc([N+](=O)[O-])ccc2N2CCN(C)CC2)c1` registered a Kd of 1.4 µM.

On to `CN1CCN(c2ccc(C(F)(F)F)cc2NC(=O)c2ccccc2Cl)CC1`, for which the dissociation constant (Kd) is above 10 µM.

As for `CN1CCN(c2ccc(C3CC3)cc2NC(=O)c2ccccc2Cl)CC1`, the Kd is above 10 µM.

Compound `Cc1cccc(C(=O)Nc2cc([N+](=O)[O-])ccc2N2CCN(C)CC2)c1Cl` gave a Kd of 1.1 µM.

The compound `CN(C)CCN(C)c1ccc([N+](=O)[O-])cc1NC(=O)c1ccccc1Cl` came in with a Kd above 20 µM.

As to `CN1CCN(c2ccc([N+](=O)[O-])cc2NC(=O)c2ccco2)CC1`, the Kd was above 10 µM.

The compound `CCN1CCN(c2ccc([N+](=O)[O-])cc2NC(=O)c2ccccc2Cl)CC1` yielded a Kd above 20 µM.

`CN1CCN(c2ccc([N+](=O)[O-])cc2NC(=O)c2ccccc2)CC1` yielded a Kd of 5.8 µM.

In turn, `CN(C)C1CCN(c2ccc([N+](=O)[O-])cc2NC(=O)c2ccccc2Cl)CC1` came in with a Kd above 20 µM.

In turn, `CN1CCN(c2ccc(N)cc2NC(=O)c2ccccc2Cl)CC1` showed a Kd above 10 µM.

`CC(=O)Nc1cc([N+](=O)[O-])ccc1N1CCN(C)CC1` displayed a Kd above 10 µM.

`O=C(Nc1cc([N+](=O)[O-])ccc1N1CCCCC1)c1ccccc1Cl` yielded a Kd above 20 µM.

`O=C(Nc1cc([N+](=O)[O-])ccc1F)c1ccccc1Cl` had a Kd above 20 µM.

Turning to `CN1CCN(c2ccc([N+](=O)[O-])cc2NC(=O)c2ccc(F)cc2Cl)CC1`, the Kd worked out at 0.63 µM. That is a sub-micromolar value.

For the compound `CN1CCN(c2ccc(Br)cc2NC(=O)c2ccccc2Cl)CC1`, the Kd is above 10 µM.

Take `CN1CCN(c2ccc([N+](=O)[O-])cc2NC(=O)c2cccc3ccccc23)CC1`: the Kd is 0.71 µM.

The compound `CN1CCCN(c2ccc([N+](=O)[O-])cc2NC(=O)c2ccccc2Cl)CC1` gave a Kd of 7 µM.

Compound `NC1CCN(c2ccc([N+](=O)[O-])cc2NC(=O)c2ccccc2Cl)CC1` showed a Kd above 20 µM.

In turn, `Cc1cc(C(=O)Nc2cc([N+](=O)[O-])ccc2N2CCN(C)CC2)ccc1F` yielded a Kd of 0.59 µM. That is a sub-micromolar value.

As for `CC1CN(c2ccc([N+](=O)[O-])cc2NC(=O)c2ccccc2Cl)CCN1C` (stereo not drawn), binding was put at a Kd of 4.7 µM.

`O=C(Nc1cc([N+](=O)[O-])ccc1N1CCNCC1)c1ccccc1Cl` came in with a Kd above 20 µM.

On to `NC1CCN(c2ccc([N+](=O)[O-])cc2NC(=O)c2ccccc2Cl)C1` (stereo not drawn), for which the Kd is above 20 µM.

In the case of `CN1CCN(c2ccc([N+](=O)[O-])cc2NC(=O)C2CCCCC2)CC1`, the Kd is above 10 µM.

On to `O=C(Nc1cc([N+](=O)[O-])ccc1N1CCOCC1)c1ccccc1Cl`, for which the Kd is above 20 µM.

Consider `CN1CCN(c2ccc(-c3ccco3)cc2NC(=O)c2ccccc2Cl)CC1`, for which the dissociation constant Kd was 3.5 µM.

For `CN1CCN(c2ccc([N+](=O)[O-])cc2NC(=O)c2cccc(O)c2)CC1`, the Kd is above 10 µM.

Compound `CN1CCN(c2ccc(C(=O)O)cc2NC(=O)c2ccccc2Cl)CC1` showed a Kd above 10 µM.

For a further experiment, the target named is T1, WD repeat-containing protein 5. The experiment in a line: Antagonist activity at WDR5 (unknown origin).
`O=C(O)c1ccc2ccccc2c1-c1c(C(=O)O)ccc2ccccc12` yielded a concentration for half-maximal inhibition (IC50) of 6 µM.
